# Test results published in ChEMBL document CHEMBL4765282, “Design, synthesis and biological evaluation of 1H-pyrazolo [3,4-d]pyrimidine derivatives as PAK1 inhibitors that trigger apoptosis, ER stress and anti-migration effect in MDA-MB-231 cells” (Eur J Med Chem, 2020).
# Active and inactive are the calls of the source. No cut-off for these calls is given here.
# Experiments:
# [1] = species on record: Homo sapiens; assay: Selectivity ratio of IC50 for inhibition of PAK2 (unknown origin) to IC50 for inhibition of PAK1 (unknown origin)
# [2] = molecular target: T1, Serine/threonine-protein kinase PAK 1 (Homo sapiens, UniProt Q13153); assay: Inhibition of PAK1 (unknown origin) […] measured after 40 mins by ADP-glo kinase assay
# T1 sequence (Q13153 whole entry): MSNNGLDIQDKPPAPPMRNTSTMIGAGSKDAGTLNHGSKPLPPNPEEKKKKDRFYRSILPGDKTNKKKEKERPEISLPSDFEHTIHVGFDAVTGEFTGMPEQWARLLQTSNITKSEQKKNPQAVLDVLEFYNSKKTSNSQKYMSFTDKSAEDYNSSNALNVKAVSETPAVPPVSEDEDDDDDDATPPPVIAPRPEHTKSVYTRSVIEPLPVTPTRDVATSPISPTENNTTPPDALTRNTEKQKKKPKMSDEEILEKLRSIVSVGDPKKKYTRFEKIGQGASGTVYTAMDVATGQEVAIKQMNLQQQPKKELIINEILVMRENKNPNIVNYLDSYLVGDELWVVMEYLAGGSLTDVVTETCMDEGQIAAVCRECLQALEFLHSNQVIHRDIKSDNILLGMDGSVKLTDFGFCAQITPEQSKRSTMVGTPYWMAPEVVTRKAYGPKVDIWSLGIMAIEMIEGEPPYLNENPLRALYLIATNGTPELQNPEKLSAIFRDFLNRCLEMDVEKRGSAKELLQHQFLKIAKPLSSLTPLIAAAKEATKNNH
# [3] = molecular target: T1, Serine/threonine-protein kinase PAK 1; assay: Inhibition of PAK1 phosphorylation at Thr212 residues in human MDA-MB-231 cells at 10 to 40 uM measured after 24 hrs by Western blot analysis; format: cell-based; settings: dose 10-40 µM
# [4] = molecular target: T1, Serine/threonine-protein kinase PAK 1; assay: Inhibition of PAK1 in human MDA-MB-231 cells assessed as reduction in c-Raf phosphorylation at Ser259 residues at 10 to 40 uM measured after 24 hrs by Western blot analysis; format: cell-based; settings: dose 10-40 µM
# [5] = molecular target: T1, Serine/threonine-protein kinase PAK 1; assay: Inhibition of PAK1 in human MDA-MB-231 cells assessed as reduction in MEK1/2 phosphorylation at ser217/221 residues at 10 to 40 uM measured after 24 hrs by Western blot analysis; format: cell-based; settings: dose 10-40 µM
# [6] = molecular target: T1, Serine/threonine-protein kinase PAK 1; assay: Inhibition of PAK1 in human MDA-MB-231 cells assessed as reduction in ERK1/2 phosphorylation at Thr202/Tyr204 residues at 10 to 40 uM measured after 24 hrs by Western blot analysis; format: cell-based; settings: dose 10-40 µM
# [7] = tested on: MDA-MB-231; assay: Induction of apoptosis in human MDA-MB-231 cells assessed as increase in DNA fragmentation at 10 to 40 uM measured after 24 hrs by Hoechst 33258 staining based assay; format: functional, cell-based; settings: dose 10-40 µM
# [8] = tested on: MDA-MB-231; assay: Induction of apoptosis in human MDA-MB-231 cells assessed as viable cells at 10 uM measured after 24 hrs by Annexin V-FITC/propidium iodide staining based flow cytometry (reference value: 98.46%); format: functional; settings: read-out: Activity
# [9] = tested on: MDA-MB-231; assay: Induction of apoptosis in human MDA-MB-231 cells assessed as early apoptotic cells at 10 uM measured after 24 hrs by Annexin V-FITC/propidium iodide staining based flow cytometry (reference value: 0.81%); format: functional
# [10] = tested on: MDA-MB-231; assay: Induction of apoptosis in human MDA-MB-231 cells assessed as late apoptotic cells at 20 uM measured after 24 hrs by Annexin V-FITC/propidium iodide staining based flow cytometry (reference value: 0.57%); format: functional
# [11] = tested on: MDA-MB-231; assay: Induction of apoptosis in human MDA-MB-231 cells assessed as necrotic cells at 20 uM measured after 24 hrs by Annexin V-FITC/propidium iodide staining based flow cytometry (reference value: 0.16%); format: functional
# [12] = tested on: MDA-MB-231; assay: Induction of apoptosis in human MDA-MB-231 cells assessed as viable cells at 40 uM measured after 24 hrs by Annexin V-FITC/propidium iodide staining based flow cytometry (reference value: 98.46%); format: functional; settings: read-out: Activity
# [13] = tested on: MDA-MB-231; assay: Induction of apoptosis in human MDA-MB-231 cells assessed as early apoptotic cells at 40 uM measured after 24 hrs by Annexin V-FITC/propidium iodide staining based flow cytometry (reference value: 0.81%); format: functional
# [14] = tested on: MDA-MB-231; assay: Induction of apoptosis in human MDA-MB-231 cells assessed as increase in PARP cleavage at 10 to 40 uM measured after 24 hrs by Western blot analysis; format: functional, cell-based; settings: dose 10-40 µM
# [15] = Upregulation of ATF4 gene expression in human MDA-MB-231 cells by Trizol reagent based RNA sequencing analysis relative to control; format: functional
# [16] = Effect on HERPUD1 gene expression in human MDA-MB-231 cells by Trizol reagent based RNA sequencing analysis relative to control; format: functional
# [17] = Effect on DDIT4 gene expression in human MDA-MB-231 cells by Trizol reagent based RNA sequencing analysis relative to control; format: functional
# [18] = Effect on SHMT2 gene expression in human MDA-MB-231 cells by Trizol reagent based RNA sequencing analysis relative to control; format: functional
# [19] = Effect on STC2 gene expression in human MDA-MB-231 cells by Trizol reagent based RNA sequencing analysis relative to control; format: functional
# [20] = Effect on ASNS gene expression in human MDA-MB-231 cells by Trizol reagent based RNA sequencing analysis relative to control; format: functional
# [21] = Effect on EGR1 gene expression in human MDA-MB-231 cells by Trizol reagent based RNA sequencing analysis relative to control; format: functional
# [22] = Effect on MIA2 gene expression in human MDA-MB-231 cells by Trizol reagent based RNA sequencing analysis relative to control; format: functional
# [23] = Effect on CXCL2 gene expression in human MDA-MB-231 cells by Trizol reagent based RNA sequencing analysis relative to control; format: functional
# [24] = Effect on JUN gene expression in human MDA-MB-231 cells by Trizol reagent based RNA sequencing analysis relative to control; format: functional
# [25] = Effect on GPT2 gene expression in human MDA-MB-231 cells by Trizol reagent based RNA sequencing analysis relative to control; format: functional
# [26] = Effect on CSTA gene expression in human MDA-MB-231 cells by Trizol reagent based RNA sequencing analysis relative to control; format: functional
# [27] = Effect on MMP3 gene expression in human MDA-MB-231 cells by Trizol reagent based RNA sequencing analysis relative to control; format: functional
# [28] = Effect on KLF15 gene expression in human MDA-MB-231 cells by Trizol reagent based RNA sequencing analysis relative to control; format: functional
# [29] = Effect on KLHDC7B gene expression in human MDA-MB-231 cells by Trizol reagent based RNA sequencing analysis relative to control; format: functional
# [30] = Effect on GRID1 gene expression in human MDA-MB-231 cells by Trizol reagent based RNA sequencing analysis relative to control; format: functional
# [31] = tested on: MDA-MB-231; assay: Upregulation of ATF4 expression in human MDA-MB-231 cells at 10 to 40 uM measured after 24 hrs by Western blot analysis; format: functional, cell-based; settings: dose 10-40 µM
# [32] = tested on: MDA-MB-231; assay: Upregulation of CHOP expression in human MDA-MB-231 cells at 10 to 40 uM measured after 24 hrs by Western blot analysis; format: functional, cell-based; settings: dose 10-40 µM
# [33] = tested on: MDA-MB-231; assay: Upregulation of PERK expression in human MDA-MB-231 cells transfected with si-PAK1 at 10 uM measured after 24 hrs by Western blot analysis; format: functional, cell-based
# [34] = tested on: MDA-MB-231; assay: Inhibition of AKT phosphorylation at Ser473 residue in human MDA-MB-231 cells at 20 uM measured after 24 hrs by immunofluorescence analysis; format: cell-based
# [35] = molecular target: T2, Mitogen-activated protein kinase 8/9 (Homo sapiens) (UniProt P45983+P45984); assay: Inhibition of JNK1/2 in human MDA-MB-231 cells assessed as reduction in SAPK/JNK phosphorylation at […] residues at 10 to 40 uM after 24 hrs by Western blot analysis; format: cell-based; settings: dose 10-40 µM
# T2 sequence (P45983 whole entry, looked up): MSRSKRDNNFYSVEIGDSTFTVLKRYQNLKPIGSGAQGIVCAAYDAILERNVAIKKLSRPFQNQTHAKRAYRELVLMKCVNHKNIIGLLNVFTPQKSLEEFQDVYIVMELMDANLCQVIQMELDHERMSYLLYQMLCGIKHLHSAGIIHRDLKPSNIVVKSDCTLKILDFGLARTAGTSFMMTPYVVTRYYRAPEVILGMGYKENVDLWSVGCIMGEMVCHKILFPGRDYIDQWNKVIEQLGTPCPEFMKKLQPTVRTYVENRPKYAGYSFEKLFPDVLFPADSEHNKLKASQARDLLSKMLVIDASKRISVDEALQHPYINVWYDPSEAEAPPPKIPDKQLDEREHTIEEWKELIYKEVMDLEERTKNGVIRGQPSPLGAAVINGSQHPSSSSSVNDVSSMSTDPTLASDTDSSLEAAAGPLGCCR
# T2 sequence (P45984 whole entry, looked up): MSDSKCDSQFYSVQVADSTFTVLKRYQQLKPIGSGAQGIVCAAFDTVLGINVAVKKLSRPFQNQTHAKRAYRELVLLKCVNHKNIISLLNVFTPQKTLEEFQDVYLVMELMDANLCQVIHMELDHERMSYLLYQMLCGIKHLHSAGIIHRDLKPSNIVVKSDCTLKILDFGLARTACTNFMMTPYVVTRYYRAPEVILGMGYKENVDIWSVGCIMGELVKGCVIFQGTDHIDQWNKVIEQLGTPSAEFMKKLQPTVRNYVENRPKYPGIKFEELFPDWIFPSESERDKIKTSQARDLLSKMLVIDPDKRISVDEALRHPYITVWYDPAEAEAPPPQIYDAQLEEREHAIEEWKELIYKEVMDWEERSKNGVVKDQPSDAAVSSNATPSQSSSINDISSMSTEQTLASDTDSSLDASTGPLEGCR
# [36] = molecular target: T2, Mitogen-activated protein kinase 8/9 (Homo sapiens); assay: Inhibition of JNK1/2 in human MDA-MB-231 cells assessed as reduction in c-JUN phosphorylation at Ser63 residues at 10 to 40 uM after 24 hrs by Western blot analysis; format: cell-based; settings: dose 10-40 µM
# [37] = tested on: MDA-MB-231; assay: Up regulation of E-cadherin expression in human MDA-MB-231 cells at 10 to 40 uM measured after 24 hrs by Western blot analysis; format: functional, cell-based; settings: dose 10-40 µM
compound,measurement,setting,value
O=C(Nc1cc(C(F)(F)F)cc(C(F)(F)F)c1)NC1CCN(c2ncnc3[nH]ncc23)CC1,Ratio IC50,[1],5
same,IC50,[2],170 nM
same,inhibition,[3],Active
same,inhibition,[4],Active
same,inhibition,[5],Active
same,inhibition,[6],Active
same,Activity,[7],Active
same,viability at 10 µM,[8],88%
same,Activity,[9],7.16%
same,Activity,[10],6.91%
same,Activity,[11],0.59%
same,viability at 40 µM,[12],72.2%
same,Activity,[13],14.79%
same,Activity,[14],Active
same,fold change (FC),[15],>2
same,fold change (FC),[16],>2
same,fold change (FC),[17],>2
same,fold change (FC),[18],>2
same,fold change (FC),[19],>2
same,fold change (FC),[20],>2
same,fold change (FC),[21],>2
same,fold change (FC),[22],>2
same,fold change (FC),[23],>2
same,fold change (FC),[24],>2
same,fold change (FC),[25],>2
same,fold change (FC),[26],>2
same,fold change (FC),[27],>2
same,fold change (FC),[28],>2
same,fold change (FC),[29],>2
same,fold change (FC),[30],>2
same,Activity,[31],Active
same,Activity,[32],Active
same,Activity,[33],inactive
same,inhibition,[34],Active
same,inhibition,[35],Active
same,inhibition,[36],Active
same,Activity,[37],Active
